# Measured values taken from patent publication US4912036A, “Rapid differentiation of bacteria using cyclic polypeptide antibiotics” (Eastman Kodak Company, priority 1986, dated 1990).
# What was measured:
# E. coli = experiment: RIND VII reduction solution assay, ΔOD 635 nm; format: cell-based, Escherichia coli; conditions: E. coli 7 × 10^7 /ml, antibiotic 10^-4 molar
# Experimental: (§1) Bacterial suspensions were prepared by growing the cells in BHT broth to stationary phase overnight at 37° C. P. auruginosa was grown with agitation. About 40 ml of each overnight culture was centrifuged, decanted and washed once with 0.05 molar potassium phosphate buffer or 0.05 molar N-2-hydroxy-ethylpiperazine-N'-2-ethanesulfonic acid (HEPES) buffer, pH 7.8, and resuspended in buffer.
# (§2) TERGITOL 7 anionic surfactant was used to differentiate viable bacteria according to the prior art method. Various concentrations of TERGITOL 7 surfactant were mixed with a 10% glucose solution (50 μl), 3-(4,5-dimethyl-2-thiazolyl)-2,5-diphenyl-2N-tetrazolium bromide (MTT) (25 μl at 5 mg/ml methanol) or a RIND VII dispersion (1.5 ml) and phenazine methosulfate ETA (25 μl at 3 mg/ml methanol). The volume of each test solution was brought to 3 ml with potassium phosphate buffer. A cell suspension (100 μl at about 10^8 cells/ml) was then added. The solutions were incubated at 37° C. for 15 and 30 minutes in the presence of either E. coli, a gram(-) bacterium, or S. aureus, a gram(+) bacterium. The amount of dye formed was then determined visually, and graded as follows: "O" indicates no dye formation, +/- indicates faint dye formation, 1+ indicates light dye formation, 2+ indicates moderate dye formation, 3+ indicates strong dye formation, and 4+ indicates very strong dye formation. […]
# P. vulgaris = experiment: RIND VII reduction solution assay, ΔOD 635 nm; format: cell-based, Proteus vulgaris; conditions: P. vulgaris 7 × 10^7 /ml, antibiotic 10^-4 molar
# Experimental: as §1, §2
# S. faecalis [1] = experiment: RIND VII reduction solution assay, ΔOD 635 nm; format: cell-based, Streptococcus faecalis; conditions: S. faecalis 7 × 10^7 /ml, antibiotic 10^-4 molar
# Experimental: as §1, §2
# S. pyogenes = experiment: RIND VII reduction solution assay, ΔOD 635 nm; format: cell-based, Streptococcus pyogenes; conditions: cell concentration 1.5 × 10^8 /ml, antibiotic 10^-4 molar
# S. faecalis [2] = experiment: RIND XXIX reduction solution assay, Δ fluorescence; format: cell-based, Streptococcus faecalis; conditions: S. faecalis (gram +) about 5×10^7 cells/ml, gramicidin S 0.1 mg/ml, 37° C.
# Experimental: as §1
# Dispersions containing RIND compounds were prepared by dissolving the RIND compound in N,N-dimethylformamide (DMF) at 16 mg compound per ml of solvent. An aliquot (250 μl) of the resulting solution was added to 500 μl of TRITON X-100 surfactant. This mixture was then added dropwise with stirring to 25 ml of 0.05 molar HEPES buffer. A dispersion of RIND XXIX was prepared similarly except that DMF was acidified with 0.1% sulfuric acid. […]
# (§3) The solutions were incubated at 37° C. for 30 minutes, and the change in fluorescence emission (Δ fluorescence) was determined as the difference between the readings taken when the solutions were first mixed and then after 30 minutes incubation. Measurements were made in a commercially available MICROFLUOR Reader (available from Dynatech Laboratories, Alexandria, Virginia, U.S.A.), modified with an excitation filter at 540 nm, an emission filter at 620 nm and a Xenon lamp.
# E. cloacae = experiment: RIND XXIX reduction solution assay, Δ fluorescence; format: cell-based, Enterobacter cloacae; conditions: E. cloacae (gram -) about 5×10^7 cells/ml, gramicidin S 0.1 mg/ml, 37° C.
# Experimental: as §1
# (§4) Dispersions containing RIND compounds were prepared by dissolving the RIND compound in N,N-dimethylformamide (DMF) at 16 mg compound per ml of solvent. An aliquot (250 μl) of the resulting solution was added to 500 μl of TRITON X-100 surfactant. This mixture was then added dropwise with stirring to 25 ml of 0.05 molar HEPES buffer. A dispersion of RIND XXIX was prepared similarly except that DMF was acidified with 0.1% sulfuric acid. Compositions containing water-compatible RIND compounds were prepared as described above except the surfactant was omitted.
# (§5) Each test solution contained the following: dispersion of RIND XXIX (25 μl) prepared as described above, glucose (400 μl of 10% aqueous solution), tryptose (400 μl of 10% aqueous solution), trimethyl-1,4-benzoquinone ETA (500 μl of 1.5 mg/ml methanol). Aliquots (200 μl) of the mixture were mixed with solutions of the antibiotics (50 μl). The cell suspensions (50 μl) were then added. The final concentration of gramcidin S and tyrocidin were 0.1 mg/ml and 3.3 mg/ml, respectively. The final cell concentration was about 5×10^7 cells/ml. Cell control solutions contained all reagents except antibiotics. Background controls consisted of both buffer and solution controls. […]
# as §3, with “lamp. […]” for “lamp.”
# K. pneumoniae = experiment: RIND XXIX reduction solution assay, Δ fluorescence; format: cell-based, Klebsiella pneumoniae; conditions: K. pneumoniae (gram -) about 5×10^7 cells/ml, gramicidin S 0.1 mg/ml, 37° C.
# Experimental: as §1, §4, §5
# as §3, with “lamp. […]” for “lamp.”
# S. aureus = experiment: MTT reduction solution assay, ΔOD 540 nm; format: cell-based, Staphylococcus aureus; conditions: S. aureus (+) 5×10^7, gramicidin S 0.00625 mg/ml, 37° C.
# Experimental: (§6) These examples illustrate the differentiation of bacteria using a tetrazolium salt and phenolic dye as the reducible compounds and two cyclic polypeptide antibiotics according to the present invention. The tetrazolium salt was 3-(4,5-dimethyl-2-thiazolyl) -2,5-diphenyl-2H-tetrazolium bromide (MTT) which forms a colored formazan dye when reduced. The phenolic dye was 2,6-dichloroindophenol (DCIP) which forms a colorless species when reduced.
# (§7) Solutions of the reducible compounds were prepared with the following: HEPES buffer (3 ml, 0.05 molar, pH 7.5), TRITON X-100 nonionic surfactant (1% concentration), glucose (50 μl of 10% in water), tryptose (50 μl of a 10% solution in water), MTT (25 μl of 5 mg/ml methanol) or DCIP (25 μl of 3 mg/ml methanol) and phenazine methosultate ETA (25 μl of 3 mg/ml methanol).
# (§8) Test solutions were prepared from the following: reducible compound solution from above (200 μl), 50 μl of either gramicidin S solution (6 mg/ml methanol and 9 ml of buffer) or tyrocidin solution (100 mg/ml methanol and 8 ml of buffer) and 50 μl of cell suspension. […] The change in optical density (ΔOD) was determined after 30 minutes at 37° C. at 540 nm for the MTT assay and at 620 nm for the DCIP assay using a commercially available spectrophotometer.
# P. aeruginosa = experiment: DCIP reduction solution assay, ΔOD 620 nm; format: cell-based, Pseudomonas aeruginosa; conditions: P. aeruginosa (-) 5×10^7, gramicidin S 0.00625 mg/ml, 37° C.
# Experimental: as §6, §7, §8
substance,measurement,setting,value
gramicidin S,Corrected ΔOD (15 Minutes),E. coli,> 2.0
same,Corrected ΔOD (15 Minutes),P. vulgaris,> 2.0
same,Corrected ΔOD (15 Minutes),S. faecalis [1],0.125
same,Corrected ΔOD (15 Minutes),S. pyogenes,0.186
same,Δ Fluorescence (30 Minutes),S. faecalis [2],0197
same,Δ Fluorescence (30 Minutes),E. cloacae,> 4000
same,Δ Fluorescence (30 Minutes),K. pneumoniae,3084
same,"ΔOD, 540 nm after 30 Minutes",S. aureus,0.177
same,"ΔOD, 620 nm after 30 Minutes",P. aeruginosa,1.040
